The record followed here is US10968217B2, “Tetrahydropyridopyrimidines for the treatment and prophylaxis of hepatitis B virus infection” (Hoffmann-La Roche Inc., priority 2016, dated 2021).

One may read the IC50 as the concentration at which inhibition is half-maximal.

For experiment [1], the system named is HBsAg. The experiment is described as follows: HBsAg assay (CLIA of secreted HBsAg in HepG2.2.15 culture supernatant). It is filed as cell-based, HBV. The note with it: Hepatitis B virus, HepG2.2.15, read-out: IC50 (HBsAg assay). On the procedure:
(§1) HepG2.2.15 cells (Acs et al. Proc Natl Acad Sci USA, 84, (1987), 4641-4), a constitutively HBV-expressing cell line were cultured in DMEM+Glutamax-I medium (Invitrogen, Carlsbad, Calif., USA), supplemented with 10% fetal bovine serum (Invitrogen) and G418 (Invitrogen) at a final concentration of 200 mg/L and maintained in 5% CO2 at 37° C.
HepG2.2.15 cells were seeded in duplicate into white, 96-well plates at 1.5×10^4 cells/well. The cells were treated with a three-fold serial dilution series of the compounds in DMSO. The final DMSO concentration in all wells was 1% and DMSO was used as no drug control.
The HBsAg chemiluminescence immunoassay (CLIA) kit (Autobio Diagnostics Co., Zhengzhou, China, Catalog number: CL0310-2) was used to measure the levels of secreted HBV antigens semi-quantitatively. For the detection 50 μL/well culture supernatant was used and HBsAg was quantified using HBsAg chemiluminescence immunoassay (CLIA) kit (Autobio Diagnostics Co., Zhengzhou, China, Catalog number: CL0310-2), 50 μL of the supernatant was transferred to the CLIA assay plate and 50 μL of enzyme conjugate reagent was added into each well. The plates were sealed and gently agitated for 1 hour at room temperature. The supernatant-enzyme-mixture was discarded and wells were washed 6 times with 300 μL of PBS. The residual liquid was removed by plating the CLIA plate right side down on absorbent tissue paper. 25 μL of substrates A and B were added to each well. Luminance was measured using a luminometer (Mithras LB 940 Multimode Microplate Reader) after 10 minutes incubation. Dose-response curves were generated and the IC50 value was extrapolated by using the E-WorkBook Suite (ID Business Solutions Ltd., Guildford, UK). The IC50 was defined as the compound concentration at which HBsAg secretion was reduced by 50% compared to the no drug control.

Experiment [2] concerns HBV DNA. The experiment is described as follows: HBV DNA assay (real-time qPCR of extracellular HBV DNA, HepG2.2.15 cells). It counts as cell-based. The note with it: Hepatitis B virus, 144 h, extracellular HBV DNA in supernatant, six days after treatment, read-out: IC50 (Anti HBV DNA production activity). As to the method:
as §1
The assay employs real-time qPCR (TaqMan) to directly measure extracellular HBV DNA copy number in the cell supernatant. HepG2.2.15 cells were plated in 96-well microtiter plates before treatment with complete medium (DMEM, Glutamax, 10% FBS, 1% Penicillin/Streptomycin, 250 μg/mL Genetycin, final DMSO concentration is 1%). Only the interior wells were utilized to reduce “edge effects” observed during cell culture, the exterior wells were filled with complete medium to help minimize sample evaporation. […]

As for `COc1ccc(C(=O)N2CCc3nc(-c4ccccn4)ncc3C2C)s1` (centres unmarked) [Example 58, (5-Methoxy-2-thienyl)-[5-methyl-2-(2-pyridyl)-7,8-dihydro-5H-pyrido[4,3-d]pyrimidin-6-yl]methanone], the half-inhibitory concentration (IC50) in experiment [1] turned out to be 279 nM; in experiment [2] it was 41900 nM.

Turning to `CC1c2cnc(-c3ncccn3)nc2CCN1C(=O)c1nn(C)c2ccccc12` (centres unmarked) [Example 62, (1-Methylindazol-3-yl)-(5-methyl-2-pyrimidin-2-yl-7,8-dihydro-5H-pyrido[4,3-d]pyrimidin-6-yl)methanone], the IC50 in experiment [1] was determined as 420 nM.

Take `CC1c2cnc(-c3ccccn3)nc2CCN1C(=O)c1ccc(Cl)s1` (centres unmarked) [Example 42, (5-Chloro-2-thienyl)-[5-methyl-2-(2-pyridyl)-7,8-dihydro-5H-pyrido[4,3-d]pyrimidin-6-yl]methanone]: in experiment [1], the IC50 amounted to 258 nM.

With `Cc1nc(C(=O)N2CCc3nc(-c4ccccn4)ncc3C2C)sc1C` (centres unmarked) [Example 61, (4,5-Dimethylthiazol-2-yl)-[5-methyl-2-(2-pyridyl)-7,8-dihydro-5H-pyrido[4,3-d]pyrimidin-6-yl]methanone], the IC50 in experiment [1] was found to be 82 nM.
